Experimental data published in PMC8692891 (Frontiers in Immunology, 2021).
Where no end group is shown, it is not given here.

Experiments:
[1] = system: STAT4 expression in MDLCs; assay: STAT4 Western blot in MDLCs; type: cell-based, human; conditions: n = 4; for Total STAT4 expression: MDLCs treated 24 h, CGRP 0.1 μM, SAX 0.1 μM, CGRP1–8 10 μM, LPS 10 μg/ml, normalized to beta actin
Procedure: For PBMCs, cells (2 × 10^6/sample) were activated with PHA (5 μg/ml) + IL2 (100 U/ml) for 48 h at 37°C, serum-starved overnight, and stimulated for 30 min at 37°C with either IL12 (10 ng/ml; R&D systems) or interferon alpha (IFNα, 5 × 10^4 U/ml; pbl Assay Science). For MDLCs, cells (2 × 10^6/sample) were re-suspended in complete RPMI medium without cytokines and rested overnight at 37°C. […] The cells were then washed and stimulated for 30 min at 37°C with combination of IL12 + IFNα at the concentrations indicated above. PBMCs/MDLCs were subsequently lysed for 30 min on ice with 100 μl lysis buffer [50 mM Tris buffer pH = 7.5, 150 mM NaCl, 2 mM EDTA, 1% Triton X100, 0.1% SDS, 1:100 dilutions of phosphatase inhibitors II/III and protease inhibitor cocktail (Sigma)], followed by three cycles of 10 s vortex and 10 min incubation on ice. Lysates were centrifuged for 10 min at 4°C/13,200 rpm, and supernatants were collected and stored at −80°C. […] Blocking was performed for 1 h at room temperature with blocking buffer (Tris-buffered saline (TBS), 0.5% Tween 20, and 0.5% dry milk). The blots were next incubated overnight at 4°C with commercial rabbit polyclonal Abs suitable for WB, directed against human STAT4 (Proteintech #13028-1AP, 0.5 μg/ml) or phosphorylated STAT4 (pSTAT4; R&D systems, #AF4319, 1 μg/ml), followed by 1:1,000 dilution of HRP-conjugated donkey-anti-rabbit IgG Ab (Southern Biotech) for 1 h at room temperature. Loading control was verified by incubation with goat polyclonal Ab to beta actin (abcam, 0.4 μg/ml), followed by 1:5,000 dilution of HRP-conjugated donkey-anti-goat IgG Ab (Promega). All Abs were diluted in blocking buffer, and pre-stained SDS-PAGE standard markers (ThermoFisher) were applied to determine molecular weights. Revelation was performed for 1–10 s with ECL-Prime chemiluminescence detection kit (Amersham). Images were acquired with the Fusion FX camera platform (Vilber Lournmat) and protein expression was quantified with ImageJ software (NIH).
(A, B) PHA/IL2-activated PBMCs were serum-starved overnight at 37°C, and left untreated (Un) or stimulated for 30 min with either IL12 or IFNα. […] (F) MDLCs were treated as described in panels (C, D) above, and further stimulated for 30 min with combination of IL12 + IFNα.

[2] = system: langerin surface expression in MDLCs; assay: Langerin surface expression in MDLCs (flow cytometry); type: cell-based, human
Procedure: (§1) For langerin surface expression, MDLCs were washed and stained for 20 min on ice in a final volume of 50 µl PBS with a phycoerythrin (PE)-conjugated mouse monoclonal Ab against human langerin (clone DCGM4, Beckman Coulter), or matched isotype control. For HIV-1 trans-infection, MDLCs were washed and pulsed with HIV-1 ADA (1ng p24 corresponding to multiplicity of infection of 0.2) for 4 h. MDLCs were next incubated with autologous CD4+ T-cells or with green fluorescent protein (GFP)-reporter T-cells, and HIV-1 replication was measured in the co-culture supernatants using p24 ELISA (Fujirebio) or by evaluating GFP fluorescent by flow cytometry, as we described ([13]–[15]). Fluorescent profiles were acquired using a Guava easyCite and analyzed with the InCyte software (Merck-Millipore).
(§2) Data was analyzed using Prism software (GraphPad). Concentration-response curves were analyzed with the [log(agonist) vs. response (three parameters)] model for langrin upregulation and the [log(inhibitor) vs. normalized response − variable slope] model for HIV-1 trans-infection inhibition. The -log molar concentrations of agonists generating 50% response represented potencies (i.e., pEC50 and pIC50). Statistical significance was analyzed with the two-tailed Student’s t-test.
The cells were then stained for surface langerin and examined by flow cytometry.

[3] = system: HIV-1 ADA; assay: MDLCs-mediated HIV-1 trans-infection to CD4+ T-cells; type: cell-based; conditions: for Inhibition of MDLCs-mediated HIV-1 trans-infection (in words): p24 ELISA or GFP-reporter T-cells by flow cytometry
Procedure: as §1, §2
The cells were then pulsed with HIV-1 ADA for 4 h, washed, and incubated for 7 days with autologous CD4+ T-cells (A–C) or 3 days with HIV-1 GFP-reporter T-cells (D). HIV-1 trans-infection and replication in T-cells was evaluated by p24 ELISA in the co-culture supernatants or by GFP expression and flow cytometry.

[4] = system: HIV-1 (V29)-infected PBMCs; assay: HIV-1 infection of dermal T-cells in inner foreskin tissue explants ex-vivo; type: cell-based; conditions: explants pre-treated 24 h at 1 μM, inoculated 4 h, further three days incubation; flow cytometry; n = 4
Procedure: For infection experiments, round (8 mm diameter) inner foreskin tissue pieces were placed in 24-well plates and incubated submerged for 24 h at 37°C with 1 ml complete RPMI medium, alone or supplemented with CGRP or SAX (1 μM, four explants per condition). The tissues were next washed, transferred to two-chamber transwell inserts (Sigma), and inoculated in a polarized manner for 4 h at 37°c with either non-infected or HIV-1 (V29)-infected PBMCs (in duplicates), as we described ([11], [12]).
Dermal cell suspensions were prepared following washing of the explants, additional incubation for three days at 37°C submerged in 1 ml fresh medium, and subsequent enzymatic digestion with collagenase/DNase as we described ([11], [12]). Pooled cells of each duplicate were surface stained as above using FITC-conjugated mouse-anti-human CD3 Ab (Pharmingen), fixed, permeabilized, and stained for 30 min at room temperature with 1:160 dilution of PE-conjugated mouse-anti-human Ab to HIV-1 p24 and core antigens (Beckman Coulter). Fluorescent profiles were recorded using a Guava easyCyte and InCyte software.
(D, E) Other explants were further incubated for additional three days and digested with collagenase/DNase. In panel (D), shown are representative flow cytometry dot plots of dermal cell suspensions double stained for surface CD3 and intracellular p24 and examined by flow cytometry. […]

[5] = cited from earlier work
Source text: However, CGRP-mediated vasodilation is potentially protective, at least during hypertension and cardiovascular complications ([5]).

NCCCC[C@H](NC(=O)[C@@H](Cc1cc(Br)c(O)c(Br)c1)NC(=O)N1CCC(N2Cc3ccccc3NC2=O)CC1)C(=O)N1CCN(c2ccncc2)CC1 [BIBN4096]
Effect of antagonist on CGRP- and SAX-mediated increase in STAT4 ([1]; BIBN4096 1 μM added 15 min before agonists (0.1 μM)): abrogated | Effect of antagonist on CGRP- and SAX-mediated increase in langerin expression ([2]; BIBN4096 1 μM added 15 min before agonists (0.1 μM), n = 4): completely abrogated | Effect of antagonist on CGRP- and SAX-mediated inhibition of HIV-1 trans-infection ([3]; BIBN4096 1 μM added 15 min before agonists (0.1 μM), n = 3): completely abrogated

CGRP1–8: previously described CGRP N-terminal fragment (ACDTATCV; not fully specified (bridges); ends and bridges not checked; UniProt P06881 83-90, looked up, fragment)
Total STAT4 expression [1]: failed to increase | Increase in langerin surface expression (in words) ([2]; MDLCs treated 24 h, flow cytometry): fails to increase | Inhibition of MDLCs-mediated HIV-1 trans-infection (in words) ([3]; MDLCs treated 24 h): lacks anti-HIV-1 inhibitory activity

lipopolysaccharide [LPS]
Total STAT4 expression [1]: significantly increased

serinyl-CGRP2-37-amide with an albumin binding fatty acid moiety in the N-terminus [SAX]
HIV-1 infection of dermal T-cells (p24+CD3+) [4]: undetectable levels | Half-life compared to CGRP [5]: longer | Total STAT4 expression [1]: significantly increased | Phosphorylation of induced STAT4 (pSTAT4) upon cytokine stimulation ([1]; after 24 h agonist treatment, 30 min IL12 + IFNα): could be readily phosphorylated | pEC50 [95% CI], increase in langerin surface expression ([2]; MDLCs treated 24 h, flow cytometry, -log molar, n = 5): 8.3 [9.6–6.5] | pIC50 [95% CI], inhibition of MDLCs-mediated HIV-1 trans-infection ([3]; MDLCs treated 24 h, pulsed with HIV-1 ADA 4 h, 7 days with autologous CD4+ T-cells, p24 ELISA, -log molar, n = 5): 8.9 [9.9–7.9] | Inhibition of MDLCs-mediated HIV-1 trans-infection (in words) ([3]; MDLCs treated 24 h): significantly inhibited | Fold lower potency of SAX than CGRP ([3]; blocking HIV-1 trans-infection in MDLCs): > 10 fold
